Results reported in patent US8951752B2, “N-demethyase genes and uses thereof” (priority 2011, dated 2015).

Experiments:
NdmB-His6 = target: T1, NdmB-His6 (Pseudomonas putida, UniProt H9N290); test: Methylxanthine N-demethylase assay and kinetics, NdmB-His6 with His6-NdmD; format: biochemical, Pseudomonas putida CBB5; conditions: NdmB-His6
T1 construct: made in house; host or cells: E. coli BL21(DE3)
T1 sequence (H9N290 1-355): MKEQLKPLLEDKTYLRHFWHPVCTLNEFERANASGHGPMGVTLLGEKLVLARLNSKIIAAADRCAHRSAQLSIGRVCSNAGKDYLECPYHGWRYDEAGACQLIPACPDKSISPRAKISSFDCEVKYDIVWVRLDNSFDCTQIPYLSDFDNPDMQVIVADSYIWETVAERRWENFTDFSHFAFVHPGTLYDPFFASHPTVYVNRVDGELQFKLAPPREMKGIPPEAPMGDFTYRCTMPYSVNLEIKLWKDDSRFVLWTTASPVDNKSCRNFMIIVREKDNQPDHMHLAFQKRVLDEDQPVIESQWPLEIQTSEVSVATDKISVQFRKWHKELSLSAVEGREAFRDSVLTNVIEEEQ
Procedure: Methylxanthine N-demethylase activity assay contained, in 1-ml total volume, 0.5 mM methylxanthine, 1 mM NADH, 50 μM Fe(NH4)2(SO4)2, and an appropriate amount of NdmA-His6 or NdmB-His6 (7.4 μg-2.5 mg protein depending on substrate specificity) in 50 mM KPi buffer (pH 7.5). Approximately 4 U of partially purified reductase, prepared as described previously (Summers et al., 2011) or 59 U of purified His6-NdmD was added to reaction mixture. Catalase from bovine liver (4,000 U) was also added to reactions containing His6-NdmD. The reaction mixture was incubated at 30° C. with 300 rpm shaking on an incubating microplate shaker (VWR, Radnor, Pa.). Periodically, a small aliquot was sampled from the reaction mixture and mixed with equal volume of acetonitrile for quantifying concentrations of methylxanthines and N-demethylated products by HPLC. One unit of N-demethylase activity was defined as the consumption of one […] methylxanthine per minute.
Apparent kinetic parameters of NdmA-His6 and NdmB-His6 were determined by measuring the initial rate of disappearance (vo) of methylxanthines in 50 mM KPi buffer (pH 7.5) at 30° C. The initial substrate concentrations (ESI) used in these experiments were from 25 to 500 μM. Substrates were incubated with His6-NdmD plus either NdmA-His6 or NdmB-His6 under standard conditions for 15 minutes. At 1, 5, 10, and 15 minutes, samples were removed from the reaction mixtures to quantitate substrate concentrations by HPLC. Plots of substrate concentrations against time were used to determine the initial rates of disappearance of substrates which were linear over 15 minutes. The apparent kinetic parameters were determined from Michaelis-Menten plots of vo against [S] fitted with the equation

[1] = tested on: cell extracts prepared from P. putida CBB5; test: NADH-dependent N-demethylase activity of CBB5 cell extracts; format: biochemical, Pseudomonas putida CBB5; conditions: 0.5 mM substrate, 7.2 mg mL^−1 protein

Question: How did the Product (NdmB-His6) turn out when `Cn1cnc2c1c(=O)[nH]c(=O)n2C` [Theobromine, 3,7-dimethylxanthine] was run?
Answer: Its Product is 7-methylxanthine.

Question: And the “degradation rate compared with paraxanthine” value [1]?
Answer: The value was “significantly slower”.
